Test results: patent US20100137344A1, “INDUCTION OF ANALGESIA IN NEUROPATHIC PAIN” (University Court of the University of Edinburgh, priority 2006, published 2010)

Tested on: rats with Complete Freund's Adjuvant (CFA)-induced inflammation
Experiment: Intrathecal icilin in CFA inflammatory pain model (PWL, PWT)
Format: in vivo, rat
Settings: icilin 10 nmol, i.t.
Description: Pain models were generated under halothane anaesthesia (Zeneca, Cheshire, UK). For the chronic constriction injury (CCI) model of neuropathic pain, four ligatures were tied loosely to constrict the sciatic nerve at mid-thigh level (as described previously^[39]). An inflammatory pain model was generated by injecting 100 μl of Complete Freund's Adjuvant (CFA, Sigma-Aldrich Ltd) into the ventral surface of the right hindpaw^[39]. A model of peripheral demyelination-induced pain was produced by focal application of lysolecithin to the sciatic nerve^[40]. Peak behavioural sensitisation was observed post-surgically between days 10-16 for CCI, 1-3 for CFA, and 7-14 for lysolecithin, when pharmacological and electrophysiological experiments and tissue removal were conducted.
Thermal sensitivity was assessed by measuring paw withdrawal latency (PWL, s) in response to a noxious thermal stimulus (Hargreaves' thermal stimulator, Linton Instrumentation, Diss, UK) directed to the hindpaw mid-plantar glabrous surface. Mechanical sensitivity was recorded as the paw withdrawal threshold (PWT, mN/mm^2) to calibrated von Frey filaments (Stoelting, Ill., US), as previously described^[39]. Sensitivity to noxious cold was assessed by placing animals in a waterbath with an aluminium floor containing 1 cm deep 4° C. water and counting the time the paw was held suspended over a 20 s period.
The following drugs were applied intrathecally in a 50 μl volume of saline-based vehicle at 37° C.: icilin (2.5-200 μM in saline with 0.2% dimethylformamide, DMF), LY 341495 (100 μM in saline), UBP 1112 (200 μM in saline), 2R,4R-APDC ((2R, 4R)-4-aminopyrrolidine-2,4-dicarboxylate), 300 μM in saline), ACPT-III ((1R,3R,4S)-1-aminocyclopentane-1,3,4-tricarboxylic acid), 3 mM in saline), AP-4, ((L-(1)-2-amino-4-phosphonobutyric acid), 3 mM in saline), naloxone (0.5 mM in saline), NMDA (75 μM in saline) and ACPC (1-aminocyclopropanecarboxylic acid, 15 μM in saline) (Tocris Cookson, Bristol, UK), (−)-menthol (1R,2S,5R-(−)-menthol, 4 mM in saline), cinnamaldehyde (1.5 mM in saline) and Ruthenium Red (5 μM in saline) (Sigma-Aldrich Co. Ltd, UK) and allicin (0.5 mM in saline with 0.5% DMF) and diallyl disulphide (DADS, 1 mM in saline with 0.5% DMF) (LKT Laboratories Inc., St Paul, Minn., USA). […] Behavioural reflex testing commenced 15 min following injection to allow recovery from anaesthesia^[40,41,42] and continued every 5 min thereafter until readings returned to baseline levels (n=6 in each case). […]
The TRPM8 channel activators, icilin and (−)-menthol were tested in CCI and naïve animals. The effects of icilin were additionally assessed in animals with CFA-induced inflammation or with lysolecithin-induced demyelination. […]

Q: How did the “Mean % reversal of mechanical sensitisation (after 15-30 mins)” value turn out when `O=C1NC(c2cccc([N+](=O)[O-])c2)=CCN1c1ccccc1O` [icilin, 1-(2′-hydroxyphenyl)-4-(3″-nitrophenyl)-1,2,3,6-tetrahydropyrimidin-2-one] was run?
A: 42.6 ± 2.8%

Q: What about the “Mean % reversal of thermal sensitisation (after 15-30 mins)” value of the same molecule?
A: 66.0 ± 7.5%

Q: And the “PWL (s) difference from control (+ icilin)” value?
A: 1.6 ± 1.6 s

Q: What about the “PWT (mN/mm^2) difference from control (+ icilin)” value of the same molecule?
A: 1707.6 ± 149.9 mN/mm^2
